Patent US8748415B2 (priority 2011, dated 2014)

System: recombinant NL4-3 virus (Renilla luciferase in nef, Gag P373S)
Assay: HIV cell culture assay (luciferase activity in MT-2 cells infected with NLRluc recombinant virus)
Format: cell-based
Details: NL43, MT-2 cells infected 4-5 days with NLRluc recombinant virus
In short: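 MT-2 cells in RPMI/10% FBS were infected with recombinant NL4-3 (NLRluc), produced by 293T transfection and titered in MT-2 by luciferase. Serial inhibitor dilutions were present throughout a 4–5 day infection. Antiviral activity was quantified as Renilla luciferase signal via a modified Dual Luciferase read.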

`C=C(C)[C@@H]1CC[C@]2(CNCc3ccc(S(N)(=O)=O)cc3)CC[C@]3(C)[C@H](CC[C@@H]4[C@@]5(C)CC=C(c6ccc(C(=O)O)cc6)C(C)(C)[C@@H]5CC[C@]43C)[C@@H]12` [Example 35] gave an EC50 (class symbol) of under 100 nM.

For `C=C(C)[C@@H]1CC[C@]2(CNCCC(=O)N3CCC[C@H]3C(=O)OC)CC[C@]3(C)[C@H](CC[C@@H]4[C@@]5(C)CC=C(c6ccc(C(=O)O)cc6)C(C)(C)[C@@H]5CC[C@]43C)[C@@H]12` [Example 101, 4-((1R,3aS,5aR,5bR,7aR,11aS,11bR,13aR,13bR)-3a-((3-((S)-2-(methoxycarbonyl)pyrrolidin-1-yl)-3-oxopropylamino)methyl)-5a,5b,8,8,11a-pentamethyl-1-(prop-1-en-2-yl)-2,3,3a,4,5,5a,5b,6,7,7a,8,11,11a,11b,12,13,13a,13b-octadecahydro-1H-cyclopenta[a]chrysen-9-yl)benzoic acid], the EC50 (class symbol) was under 100 nM.

`C=C(C)[C@@H]1CC[C@]2(CNCCC(=O)N3CCN(CCS(C)(=O)=O)CC3)CC[C@]3(C)[C@H](CC[C@@H]4[C@@]5(C)CC=C(c6ccc(C(=O)O)cc6)C(C)(C)[C@@H]5CC[C@]43C)[C@@H]12` [Example 124, 4-((1R,3aS,5aR,5bR,7aR,11aS,11bR,13aR,13bR)-5a,5b,8,8,11a-pentamethyl-3a-((3-(4-(2-(methylsulfonyl)ethyl)piperazin-1-yl)-3-oxopropylamino)methyl)-1-(prop-1-en-2-yl)-2,3,3a,4,5,5a,5b,6,7,7a,8,11,11a,11b,12,13,13a,13b-octadecahydro-1H-cyclopenta[a]chrysen-9-yl)benzoic acid] gave an EC50 (class symbol) of under 100 nM.

`C=C(C)[C@@H]1CC[C@]2(CNCCC(=O)N3C[C@H]4CC[C@@H](C3)N4C)CC[C@]3(C)[C@H](CC[C@@H]4[C@@]5(C)CC=C(c6ccc(C(=O)O)cc6)C(C)(C)[C@@H]5CC[C@]43C)[C@@H]12` [Example 121, 4-((1R,3aS,5aR,5bR,7aR,11aS,11bR,13aR,13bR)-5a,5b,8,8,11a-pentamethyl-3a-((3-((1R,5S)-8-methyl-3,8-diazabicyclo[3.2.1]octan-3-yl)-3-oxopropylamino)methyl)-1-(prop-1-en-2-yl)-2,3,3a,4,5,5a,5b,6,7,7a,8,11,11a,11b,12,13,13a,13b-octadecahydro-1H-cyclopenta[a]chrysen-9-yl)benzoic acid] gave an EC50 (class symbol) of under 100 nM.

With `C=C(C)[C@@H]1CC[C@]2(CNCC(=O)OC)CC[C@]3(C)[C@H](CC[C@@H]4[C@@]5(C)CC=C(c6ccc(C(=O)O)cc6)C(C)(C)[C@@H]5CC[C@]43C)[C@@H]12` [Example 30, 4-((1R,3aS,5aR,5bR,7aR,11aS,11bR,13aR,13bR)-3a-((2-methoxy-2-oxoethylamino)methyl)-5a,5b,8,8,11a-pentamethyl-1-(prop-1-en-2-yl)-2,3,3a,4,5,5a,5b,6,7,7a,8,11,11a,11b,12,13,13a,13b-octadecahydro-1H-cyclopenta[a]chrysen-9-yl)benzoic acid] the EC50 (class symbol) was under 100 nM.

Work on `C=C(C)[C@@H]1CC[C@]2(CNCCC(=O)N3CCN(C)CC3)CC[C@]3(C)[C@H](CC[C@@H]4[C@@]5(C)CC=C(c6ccc(C(=O)O)cc6)C(C)(C)[C@@H]5CC[C@]43C)[C@@H]12` [Example 105, 4-((1R,3aS,5aR,5bR,7aR,11aS,11bR,13aR,13bR)-5a,5b,8,8,11a-pentamethyl-3a-((3-(4-methylpiperazin-1-yl)-3-oxopropylamino)methyl)-1-(prop-1-en-2-yl)-2,3,3a,4,5,5a,5b,6,7,7a,8,11,11a,11b,12,13,13a,13b-octadecahydro-1H-cyclopenta[a]chrysen-9-yl)benzoic acid] yielded an EC50 (class symbol) of under 100 nM.

`C=C(C)[C@@H]1CC[C@]2(CNCCCC(=O)OC)CC[C@]3(C)[C@H](CC[C@@H]4[C@@]5(C)CC=C(c6ccc(C(=O)O)cc6)C(C)(C)[C@@H]5CC[C@]43C)[C@@H]12` [Example 38, 4-((1R,3aS,5aR,5bR,7aR,11aS,11bR,13aR,13bR)-3a-((4-methoxy-4-oxobutylamino)methyl)-5a,5b,8,8,11a-pentamethyl-1-(prop-1-en-2-yl)-2,3,3a,4,5,5a,5b,6,7,7a,8,11,11a,11b,12,13,13a,13b-octadecahydro-1H-cyclopenta[a]chrysen-9-yl)benzoic acid] was tested, and the EC50 (class symbol) was under 100 nM.

With `C=C(C)[C@@H]1CC[C@]2(CNCCCNCCO)CC[C@]3(C)[C@H](CC[C@@H]4[C@@]5(C)CC=C(c6ccc(C(=O)O)cc6)C(C)(C)[C@@H]5CC[C@]43C)[C@@H]12` [Example 61, 4-((1R,3aS,5aR,5bR,7aR,11aS,11bR,13aR,13bR)-3a-((3-(2-hydroxyethylamino)propylamino)methyl)-5a,5b,8,8,11a-pentamethyl-1-(prop-1-en-2-yl)-2,3,3a,4,5,5a,5b,6,7,7a,8,11,11a,11b,12,13,13a,13b-octadecahydro-1H-cyclopenta[a]chrysen-9-yl)benzoic acid] the EC50 (class symbol) was under 100 nM.

`C=C(C)[C@@H]1CC[C@]2(CNCC(c3cccnc3)N(C)C)CC[C@]3(C)[C@H](CC[C@@H]4[C@@]5(C)CC=C(c6ccc(C(=O)O)cc6)C(C)(C)[C@@H]5CC[C@]43C)[C@@H]12` (stereo partly drawn) [Example 10, 4-((1R,3aS,5aR,5bR,7aR,11aS,11bR,13aR,13bR)-3a-((2-(dimethylamino)-2-(pyridin-3-yl)ethylamino)methyl)-5a,5b,8,8,11a-pentamethyl-1-(prop-1-en-2-yl)-2,3,3a,4,5,5a,5b,6,7,7a,8,11,11a,11b,12,13,13a,13b-octadecahydro-1H-cyclopenta[a]chrysen-9-yl)benzoic acid] was tested, and the EC50 (numeric value) was 4 nM.

With `C=C(C)[C@@H]1CC[C@]2(CNCC(OCC)OCC)CC[C@]3(C)[C@H](CC[C@@H]4[C@@]5(C)CC=C(c6ccc(C(=O)O)cc6)C(C)(C)[C@@H]5CC[C@]43C)[C@@H]12` [Example 42, 4-((1R,3aS,5aR,5bR,7aR,11aS,11bR,13aR,13bR)-3a-((2,2-diethoxyethylamino)methyl)-5a,5b,8,8,11a-pentamethyl-1-(prop-1-en-2-yl)-2,3,3a,4,5,5a,5b,6,7,7a,8,11,11a,11b,12,13,13a,13b-octadecahydro-1H-cyclopenta[a]chrysen-9-yl)benzoic acid] the EC50 (class symbol) was under 100 nM.

With `C=C(C)[C@@H]1CC[C@]2(CNC(=O)CN3CCS(=O)(=O)CC3)CC[C@]3(C)[C@H](CC[C@@H]4[C@@]5(C)CC=C(c6ccc(C(=O)O)cc6)C(C)(C)[C@@H]5CC[C@]43C)[C@@H]12` [Example 145, 4-((1R,3aS,5aR,5bR,7aR,11aS,11bR,13aR,13bR)-3a-((((1,1-dioxido-4-thiomorpholinyl)acetyl)amino)methyl)-1-isopropenyl-5a,5b,8,8,11a-pentamethyl-2,3,3a,4,5,5a,5b,6,7,7a,8,11,11a,11b,12,13,13a,13b-octadecahydro-1H-cyclopenta[a]chrysen-9-yl)benzoic acid] the EC50 (class symbol) was under 100 nM.

In the case of `C=C(C)[C@@H]1CC[C@]2(CNC3(CN4CCCCC4)CC3)CC[C@]3(C)[C@H](CC[C@@H]4[C@@]5(C)CC=C(c6ccc(C(=O)O)cc6)C(C)(C)[C@@H]5CC[C@]43C)[C@@H]12` [Example 82, 4-((1R,3aS,5aR,5bR,7aR,11aS,11bR,13aR,13bR)-5a,5b,8,8,11a-pentamethyl-3a-((1-(piperidin-1-ylmethyl)cyclopropylamino)methyl)-1-(prop-1-en-2-yl)-2,3,3a,4,5,5a,5b,6,7,7a,8,11,11a,11b,12,13,13a,13b-octadecahydro-1H-cyclopenta[a]chrysen-9-yl)benzoic acid], the EC50 (class symbol) is reported as under 100 nM.
